From PMC7539972, “Role of Two Exceptional trans Adenylation Domains and MbtH‐like Proteins in the Biosynthesis of the Nonribosomal Peptide WS9324A from Streptomyces calvus ATCC 13382” (Chembiochem, 2020)

Tests used:
Test in all cases: […]PPi release adenylation assay
Format in all cases: biochemical
Cal22Thr [1] = biological target: T1, Cal22Thr (Streptomyces calvus, UniProt A0A0N9LS39); conditions: 0.2 mM amino acid, 0.15 mM ATP, 1 mM MgCl2, 25 °C, 3 h, 30 μM enzyme; most active of 20 proteinogenic amino acids
T1 construct: gene cal22; complete ORF, A-PCP didomain, N-terminal His6 tag; E. coli BL21(DE3) ΔybdZ, coexpressed with untagged Cal4 (Cal4 not copurified)

Cal23Asn/Cal4 complex [2] = biological target: T2, Cal23Asn/Cal4 complex (Streptomyces calvus, UniProt A0A0N9M336); conditions: co-substrate asparagine 0.2 mM; 0.15 mM ATP, 1 mM MgCl2, 25 °C, 3 h; labelled compound
T2 construct: gene cal23; complete ORF, A-PCP didomain, N-terminal His6 tag; copurified with untagged MbtH-like protein Cal4; E. coli BL21(DE3) ΔybdZ; with MbtH-like protein

Cal22Thr [3] = biological target: T1, Cal22Thr; conditions: co-substrate threonine 0.2 mM; 0.15 mM ATP, 1 mM MgCl2, 25 °C, 3 h; labelled compound
Cal23Asn/Cal4 complex [4] = biological target: T2, Cal23Asn/Cal4 complex; conditions: 0.2 mM amino acid, 0.15 mM ATP, 1 mM MgCl2, 25 °C, 3 h, 30 μM enzyme; most active of 20 proteinogenic amino acids

T1 sequence (A0A0N9LS39 entry or part of it): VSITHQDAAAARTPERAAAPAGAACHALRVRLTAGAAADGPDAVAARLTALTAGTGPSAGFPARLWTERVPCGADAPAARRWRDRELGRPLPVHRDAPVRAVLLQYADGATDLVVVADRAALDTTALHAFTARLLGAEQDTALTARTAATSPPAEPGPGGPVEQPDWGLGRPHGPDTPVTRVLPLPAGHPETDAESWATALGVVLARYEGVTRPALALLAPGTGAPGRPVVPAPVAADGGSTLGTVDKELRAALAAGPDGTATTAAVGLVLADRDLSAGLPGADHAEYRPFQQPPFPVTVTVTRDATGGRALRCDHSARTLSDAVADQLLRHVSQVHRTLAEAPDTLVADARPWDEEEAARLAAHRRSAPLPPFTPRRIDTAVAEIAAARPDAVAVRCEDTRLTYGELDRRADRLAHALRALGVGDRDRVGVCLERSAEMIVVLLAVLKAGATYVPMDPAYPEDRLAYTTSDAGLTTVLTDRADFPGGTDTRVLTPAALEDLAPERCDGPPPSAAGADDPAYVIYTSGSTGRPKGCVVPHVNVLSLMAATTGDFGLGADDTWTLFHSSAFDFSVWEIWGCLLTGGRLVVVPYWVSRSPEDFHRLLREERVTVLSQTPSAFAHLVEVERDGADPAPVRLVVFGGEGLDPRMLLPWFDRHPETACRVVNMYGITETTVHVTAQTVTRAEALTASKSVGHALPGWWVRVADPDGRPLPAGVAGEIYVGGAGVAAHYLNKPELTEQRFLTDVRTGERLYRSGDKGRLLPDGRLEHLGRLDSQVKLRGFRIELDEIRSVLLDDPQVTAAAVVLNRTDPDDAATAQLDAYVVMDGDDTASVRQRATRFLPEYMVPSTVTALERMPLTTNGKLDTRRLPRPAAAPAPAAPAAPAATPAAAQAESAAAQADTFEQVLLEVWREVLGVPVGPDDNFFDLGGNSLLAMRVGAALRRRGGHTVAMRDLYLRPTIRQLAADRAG
T2 sequence (A0A0N9M336 entry or part of it): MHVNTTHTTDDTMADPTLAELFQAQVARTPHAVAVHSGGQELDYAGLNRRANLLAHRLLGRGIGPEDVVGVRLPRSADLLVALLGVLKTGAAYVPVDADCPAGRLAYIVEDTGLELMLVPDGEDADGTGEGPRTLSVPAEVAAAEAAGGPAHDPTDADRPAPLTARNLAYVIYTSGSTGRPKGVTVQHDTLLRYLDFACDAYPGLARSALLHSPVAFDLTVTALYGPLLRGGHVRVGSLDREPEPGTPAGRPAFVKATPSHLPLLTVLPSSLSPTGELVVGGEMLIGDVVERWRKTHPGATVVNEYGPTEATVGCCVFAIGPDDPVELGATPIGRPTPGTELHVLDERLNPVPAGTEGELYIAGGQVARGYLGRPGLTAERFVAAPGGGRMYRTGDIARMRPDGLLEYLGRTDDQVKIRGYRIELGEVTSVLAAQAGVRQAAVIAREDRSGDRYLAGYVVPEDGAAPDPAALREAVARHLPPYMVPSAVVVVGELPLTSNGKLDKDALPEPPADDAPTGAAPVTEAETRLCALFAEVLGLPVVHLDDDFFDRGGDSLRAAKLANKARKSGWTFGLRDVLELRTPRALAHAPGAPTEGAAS
T2 sequence (A0A0N9M601 entry or part of it, further chain): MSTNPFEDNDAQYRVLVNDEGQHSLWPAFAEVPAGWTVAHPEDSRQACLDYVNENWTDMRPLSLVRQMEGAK

For `C[C@@H](O)[C@H](N)C(=O)O` [threonine], the relative adenylation activity (Cal22Thr [1]) was “Cal22Thr was observed to be most specific towards its predicted substrate threonine”.
`Nc1ncnc2c1ncn2[C@@H]1O[C@H](COP(=O)(O)OP(=O)(O)OP(=O)(O)O)[C@@H](O)[C@H]1O` [ATP] was tested, and the “[33P]PPi release adenylation assay” value (Cal23Asn/Cal4 complex [2]) was “the reaction of ATP with an amino acid to form an amino acyl adenylate was measured” and the “[33P]PPi release adenylation assay” value (Cal22Thr [3]) was “the reaction of ATP with an amino acid to form an amino acyl adenylate was measured”.
With `NC(=O)C[C@H](N)C(=O)O` [asparagine] the relative adenylation activity (Cal23Asn/Cal4 complex [4]) was “Cal23Asn/Cal4 complex was most active towards asparagine, the predicted substrate of the A‐domain”.
